Data published in US6110962A, “11-aryl-benzo[B]naphtho[2,3-D]furans and 11-aryl-benzo[B]naphtho[2,3-D]thiophenes useful in the treatment of insulin resistance and hyperglycemia” (American Home Products Corporation, priority 1999, dated 2000).

Tests used:
Human recombinant PTP1B = biological target: T1, Human recombinant PTP1B (Homo sapiens, UniProt P18031); assay type: biochemical; details: read-out: IC50
T1 construct: made in house
T1 sequence (P18031 1-435): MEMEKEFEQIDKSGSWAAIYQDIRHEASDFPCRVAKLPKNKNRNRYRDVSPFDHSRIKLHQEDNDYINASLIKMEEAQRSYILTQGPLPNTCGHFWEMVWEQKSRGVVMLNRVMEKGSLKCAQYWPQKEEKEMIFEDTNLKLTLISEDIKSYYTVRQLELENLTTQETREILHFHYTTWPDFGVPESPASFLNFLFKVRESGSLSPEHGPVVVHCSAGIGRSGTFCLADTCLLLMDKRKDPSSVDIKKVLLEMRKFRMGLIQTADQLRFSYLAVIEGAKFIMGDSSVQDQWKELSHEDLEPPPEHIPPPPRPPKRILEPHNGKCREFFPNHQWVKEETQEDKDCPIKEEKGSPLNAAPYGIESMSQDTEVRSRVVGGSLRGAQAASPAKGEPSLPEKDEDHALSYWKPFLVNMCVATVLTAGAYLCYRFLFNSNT

[1] = tested on: rat hepatic microsomal PTPases; details: PTPase activity, compound at 50 μM

IC50 (Human recombinant PTP1B) [nM] | % Change from Control [1] [%] | SMILES
765 | -61.89 | N#Cc1c2ccccc2c(-c2ccc(O[C@H](Cc3ccccc3)C(=O)O)cc2)c2c1sc1ccccc12 [Example 116, (R)-2-[4-(6-Cyano-benzo[b]naphtho[2,3-d]thiophen-11-yl)-phenoxy]-3-phenyl-propionic acid]
93 | -69.86 | O=C(O)[C@@H](Cc1ccccc1)Oc1c(Br)cc(-c2c3ccccc3c(Sc3ccncc3)c3sc4ccccc4c23)cc1Br [Example 134, (R)-2-{2,6-Dibromo-4-[6-(pyridin-4-ylsulfanyl)-benzo[b]naphtho[2,3-d]thiophen-11-yl]-phenoxy}-3-phenyl-propionic acid]
1990 | -47.69 | N#Cc1cc(-c2c3ccccc3cc3sc4ccccc4c23)cc(C#N)c1OCC(=O)O [Example 81, [(4-Benzo[b]naphtho[2,3-d]thiophen-11-yl)-2,6-dicyano-phenoxy]-acetic acid]
480 | -42.41 | CC(C)(Oc1c(Br)cc(-c2c3ccccc3c(Br)c3sc4ccccc4c23)cc1Br)C(=O)O [Example 178, 2-[2,6-Dibromo-4-(6-bromo-benzo[b]naphtho[2,3-d]thiophen-11-yl)-phenoxy]-2-methyl-propionic acid]
612 | -35.46 | Oc1c(Br)cc(-c2c3ccccc3c(I)c3sc4ccccc4c23)cc1Br [Example 59, 2,6-Dibromo-4-(6-iodo-benzo[b]naphtho[2,3-d]thiophen-11-yl)-phenol]
1130 | -85.24 | C[C@@H](Oc1cc(-c2c3ccccc3c(Br)c3sc4ccccc4c23)ccc1Br)C(=O)O [Example 144, (R)-2-[2-bromo-5-(6-Bromo-benzo[b]naphtho[2,3-d]thiophen-11-yl)-phenoxyl]-propionic acid]
1010 | -43.32 | N#Cc1c2ccccc2c(-c2cc(Br)c(O)c(Br)c2)c2c1sc1ccccc12 [Example 58, 11-(3,5-Dibromo-4-hydroxy-phenyl)-benzo[b]naphtho[2,3-d]thiophene-6-carbonitrile]
204 | -71.19 | CC(C)c1cc(-c2c3ccccc3c(Br)c3sc4ccccc4c23)cc(C(C)C)c1O[C@H](C)C(=O)O [Example 140, (R)-2-[4-(6-Bromo-benzo[b]naphtho[2,3-d]thiophen-11-yl)-2,6-diisopropyl-phenoxy)-propionic acid]
1520 | -12.78 | COC(=O)[C@H](Cc1ccccc1)Oc1c(Br)cc(-c2c3ccccc3c(Br)c3sc4ccccc4c23)cc1Br [Example 110, (S)-2-[2,6-Dibromo-4-(6-bromo-benzo[b]naphtho[2,3-d]thiophen-11-yl)-phenoxy]-3-phenyl-propionic acid, methyl ester]
665 | -3.12 | NC(=O)COc1c(Br)cc(-c2c3ccccc3c(Br)c3sc4ccccc4c23)cc1Br [Example 165]
1170 | -50.62 | Oc1c(F)ccc(-c2c3ccccc3c(Br)c3sc4ccccc4c23)c1F [Example 200, 3-(6-Bromo-benzo[b]naphtho[2,3-d]thiophen-11-yl)-2,6 difluoro-phenol]
800 | -72.14 | O=C(O)[C@@H](Cc1ccccc1)Oc1c(Cl)cc(-c2c3ccccc3c(Br)c3sc4ccccc4c23)cc1Cl [Example 130, (R)-2-[2,6-Dichloro-4-(6-bromo-benzo[b]naphtho[2,3-d]thiophen-11-yl)-phenoxy]l-3-phenyl-propionic acid]
302 | -71.04 | Brc1cc(-c2c3ccccc3c(Br)c3sc4ccccc4c23)cc(Br)c1OCc1nnn[nH]1 [Example 171, 5-[2,6-Dibromo-4-(6-bromo-benzo[b]naphtho[2,3-d]thiophen-11-yl)-phenoxymethyl]-1 H-tetrazole]
207 | -92.46 | O=C(O)[C@@H](CCN1C(=O)c2ccccc2C1=O)Oc1ccc(-c2c3ccccc3c(Br)c3sc4ccccc4c23)cc1 [Example 150]
45 | -46.44 | O=C(O)[C@@H](Cc1ccccc1)Oc1c(Br)cc(-c2c3ccccc3c(OCc3ccccc3)c3sc4ccccc4c23)cc1Br [Example 184, (R)-2-[4-(6-Benzyloxy-benzo[b]naphtho[2,3-d]thiophen-11-yl]-2-6-dibromo-phenoxy}-3-phenyl-propionic acid]
1220 | -9.30 | N#CCOc1c(Br)cc(-c2c3ccccc3c(Br)c3sc4ccccc4c23)cc1Br [Example 169, [2,6-Dibromo-4-(6-bromo-benzo[b]naphtho[2.3-d]thiophen-11-yl)-phenoxy]-acetonitrile]
384 | -50.64 | C[C@H](CC(=O)O)Oc1c(Br)cc(-c2c3ccccc3c(Br)c3sc4ccccc4c23)cc1Br [Example 180]
384 | -32.41 | Oc1c(Br)cc(-c2c3ccccc3c(Br)c3sc4ccccc4c23)cc1Br [Example 21, 2,6-Dibromo-4-(6-bromo-benzo[b]naphtho[2,3-d]thiophen-11-yl)-phenol]
103 | -104.68 | O=C(O)[C@H](Oc1c(Br)cc(-c2c3ccccc3c(Br)c3sc4ccccc4c23)cc1Br)c1ccccc1 [Example 142, (R)-[2,6-Dibromo-4-(6-bromo-benzo[b]naphtho[2,3-d]thiophen-11-yl)-phenoxy]-phenyl-acetic acid]
889 | -29.34 | COc1c(O)cc(-c2c3ccccc3c(Br)c3sc4ccccc4c23)cc1Br [Example 195, 3-Bromo-5-(6-bromo-benzo[b]naphtho[2,3-d]thiophen-11-yl)-2-methoxy-phenol]
203 | -66.27 | O=C(O)CCOc1c(Br)cc(-c2c3ccccc3c(Br)c3sc4ccccc4c23)cc1Br [Example 179]
